The test system of data set [1] is Sprague-Dawley rats. Put plainly: Ketamine drug discrimination. The settings on record: FIG. 5: drug discrimination, place preference, prepulse inhibition, open field.
Data set [2] relates to Wnt signaling pathway gene expression. The data set can be described thus: Wnt pathway-specific qRT-PCR array in mPFC. The class given is in vivo, rat. The protocol: Adult (2-3 month-old) male Sprague-Dawley rats (Harlan Laboratories, Indianapolis, Ind.) were housed 3 to a cage and injected (IV) with one of the following—GLYX-13 (3 mg/kg), ketamine (10 mg/kg), or saline vehicle (1 ml/kg). At 1 and 24 hours after injection (N=5 per time point for each treatment group), rats were sacrificed, their brains were quickly dissected, frozen, and then stored at −80° C. The medial prefrontal cortex (mPFC) was dissected from frozen tissue on ice. An equal volume of the homogenized tissue was used to extract and purify RNA for microarray analysis and to make cDNA for qRT-PCR analysis. All procedures were approved by the Northwestern University IACUC committee and performed in accordance with the NIH Guide for the Care and Use of Laboratory Animals.
Reverse transcription of 1.0 μg of DNAsed, total RNA from 4 rats was primed with oligo(dT) and random hexamers. We utilized SuperScriptIII according to manufacturer's specifications (Invitrogen, Carlsbad, Calif.). A 1:10 dilution of cDNA was used as a template for quantitative real-time PCR, and the analysis was performed with Brilliant SYBR Green qRT-PCR Master Mix (Stratagene) on a Mx3000P Real-Time PCR System. ROX reference dye was included in all reactions. […]
Background: Real-time PCR tracks product formation cycle by cycle.

The test system of data set [3] is Sprague-Dawley rats. The data set can be described thus: Porsolt test. The settings on record: IV.
The subject of data set [4] is Sprague-Dawley rats. The data set can be described thus: Open field locomotor activity (line crosses). The settings on record: 0.1 μg, 20 min following MPFC infusion.

The results in this text go back to patent publication US20150253305A1, “METHODS OF IDENTIFYING COMPOUNDS FOR TREATING DEPRESSION AND OTHER RELATED DISEASES” (NORTHWESTERN UNIVERSITY, priority 2012, published 2015).

Peptide text beside a SMILES is read from it.

With `C[C@@H](O)[C@H](N)C(=O)N1CCC[C@H]1C(=O)N1CCC[C@H]1C(=O)N[C@H](C(N)=O)[C@@H](C)O` [GLYX-13, L-threonyl-L-prolyl-L-prolyl-L-threonine amide] (H-TPPT-NH2), in the data set with Sprague-Dawley rats [1], the “ketamine-like addictive sensory motor gating, or sedative side effects” value is “does not show ketamine-like addictive sensory motor gating, or sedative side effects”.
Consider `CNC1(c2ccccc2Cl)CCCCC1=O` (stereo not drawn) [Ketamine, ketamine], for which, in data set [2] (1 and 24 hrs following administration, 10 mg/kg IV, mPFC), the “number of genes downregulated (Wnt qRT-PCR array)” value is given as 1 gene. The “Frizzled 2 (Fzd) gene expression (Wnt qPCR array)” value in data set [2] (following injection, relative to vehicle control rats) is “Significant gene expression changes”. Further, the “anti-depressant effect in the Porsolt test” value in the data set with Sprague-Dawley rats [3] (10 mg/kg) was “produces a long-lasting anti-depressant effect”. Besides, the “rapid antidepressant-like effects in the Porsolt test” value in the data set with Sprague-Dawley rats [3] (rat) is listed as “produce rapid antidepressant-like effects”. Moreover, the “locomotor activity (line crosses in the open field) following MPFC infusion” value in the data set on Sprague-Dawley rats [4] was “increased locomotor activity”.
